Test results: US20150065423A1, “RAPID ACTING INJECTABLE FORMULATIONS” (Perosphere, Inc., priority 2013, published 2015)
≈ marks a conversion by molar mass, not a printed value.

Columns and labels:
[1] = "it is believed"; cited from earlier work
[2] = Soluble concentration of nitroglycerin measured by HPLC; settings: aqueous with cosolvent or surfactant or cyclodextrin
Text: The resultant suspension was centrifuged and the supernatant withdrawn to become the test article. […] The results are depicted in FIG. 1.

Question: Which results are given for `O=[N+]([O-])OCC(CO[N+](=O)[O-])O[N+](=O)[O-]` [nitroglycerin]?
Answer: water solubility [1]: < 1000 µg/mL; solubility ([2]; soluble concentration of nitroglycerin, in presence of 5% aqueous solution of Pluronic F127): ~3800 µg/mL; solubility ([2]; soluble concentration of nitroglycerin, in presence of 5% aqueous solution of Tween 80): ~4500 µg/mL; solubility ([2]; thermodynamic from solid, final concentration of nitroglycerin (solubility limit)): ~1000 µg/mL (≈ 4.4 mM); solubility ([2]; thermodynamic from solid, soluble concentration of nitroglycerin, in presence of 20% aqueous solution of PEG3350): 2000 µg/mL
